In patent US20060281695A1, “Control of parasites in animals by N-[(phenyloxy)phenyl]-1,1,1-trifluoromethanesulfonamide and N-[(phenylsulfanyl)phenyl]-1,1,1-trifluoromethanesulfonamide derivatives” (priority 2005, published 2006):

Assays:
[1] = system: cat flea (Ctenocephalides felis); assay: Ctenocephalides felis adulticide assay: single dose screen on treated glass surface (% mortality at 1.26 μg/cm^2, 24 hours); format: in vivo; conditions: for mortality at 1.26 µg/cm2, 1.26 µg/cm2: Ctenocephalides felis, 24 h, read-out: Ctenocephalides felis Mortality (%) 24 h
Protocol: The LC50 value is the concentration, expressed as μg/cm^2, that was required to kill 50% of the sample of cat fleas on contact with the tested compound. Certain tests are also reported as the percent of a sample of cat fleas that were killed at a concentration of 1.26 μg/cm^2 (“% mortality”), for the compounds tested in this way.
b) Ctenocephalides felis Adulticide Assay: C.felis single dose screen
Mortality of fleas is the primary endpoint in the assay. […] The concentration chosen (1.26 μg/cm^2) is higher than that known to kill 90% of cat fleas (LC90) using the reference compound, permethrin.
The test species employed was the cat flea (Ctenocephalides felis). The strain used was obtained from external suppliers as pupae and held in the laboratory under testing conditions until the adults had emerged. Fifteen (15) fleas were used in a minimum of four replicates against a single concentration level (approximately 60 fleas). The insects were selected to be in the adult life stage, aged between 3 and 7 days post emergence.
The compounds to be tested were supplied as solids and were prepared in acetone as described below prior to testing. Samples were stored in a refrigerator (5±1° C.) unless otherwise specified.
During the mortality testing, the temperature was maintained at 25±1° C. Humidity was maintained at 75±5%. The base (area=159 mm^2) of a 100 mL glass Erlenmeyer (conical) flask provided the treatment surface. Flasks were pre-treated with Coatasil™ glass treatment to maximise bio-availability of test compounds by preventing them from binding to glass the surface. The base of the 100 mL Erlenmeyer flask was treated with 0.5 mL of test sample in acetone and gently swirled. This volume was sufficient to cover the base of the flask. Flasks were left to dry for 24 hours before flea exposure.
Adult cat fleas were placed into a sorting chamber, which allowed fleas to jump into the Erlenmeyer flasks. Fifteen (15) adult cat fleas were collected in each flask. The top of the flasks were then covered in Parafilm™ and small holes were made to allow gas exchange. A 0.5 mL volume of acetone as a solvent control was applied to the base of an Erlenmeyer flask and the testing proceeded in the same manner described above. […] Pooled 24 hour mortality data were converted to percentages and are summarized by Table 4, below.
(§1) In Table 7, provided below, are listed the Haemonchus contortus LD99 values (measured in micrograms/mL), the Ctenocephalides felis rapid screening values (measured in % mortality), the Ctenocephalides felis LC50 values (measured in micrograms/cm^2) and the Rhipicephalus sanguineus rapid screening values (measured in % mortality) for selected compounds in accordance with the present invention.

Haemonchus contortus = Haemonchus contortus larvacidal (larval development) assay, LD99; format: in vitro
Protocol: The LD99 value is the dose, expressed as […], that was required to kill 99% of a sample of Haemonchus contortus.
a) Haemonchus Contortus Larvacidal Assay:
The effect of compounds on larval development was determined in the assay described by Gill et al. [International Journal of Parasitology 25:463-470 (1995)]. Briefly, in this assay, nematode eggs are applied to the surface of an agar matrix containing the test compound and then allowed to develop through to the L3, infective stage (6 days). The wells for each dilution of every compound (from highest to lowest concentration) are inspected to determine the well number corresponding to the lowest concentration at which development is inhibited in 99% of the nematode larvae present (LD99). Because well numbers correspond to a two-fold serial dilution of each compound, a titre (dilution factor) is generated as 2^n−1, where n is the well number. By dividing the highest concentration tested by the titre an LD99 value can be obtained, representing the concentration required to inhibit development in 99% of the nematode larvae present. The compounds supplied as solid and viscous liquids are dissolved in DMSO. Twelve serial one-half dilutions in DMSO solution are prepared from the stock solution, each of which is then diluted 1/5 with water. Aliquots (10 μl) of each dilution are transferred to the bioassay plates to give a final concentration range of 0.024 to 50 μg/ml.
as §1

[2] = system: Brown Dog Tick (Rhipicephalus sanguineus); assay: Topical application on brown dog ticks, single dose screen (% mortality at 24 hours); format: in vivo; conditions: adult brown dog ticks, topical 1 μL in acetone on abdomen, single dose 10 μg per tick
Protocol: d) Topical Application On Brown Dog Ticks (Rhipicephalus sanguineus)
The aim of the test is to determine the presence of significant acaricidal activity in sample compounds or formulations when applied topically on brown dog ticks. A tick is defined as dead if it gives no apparent response when: (i) touched lightly and (ii) then observed for 1 minute. To assess the experimental compound for acaricidal activity, a single dose level is chosen based on known results from previous experiments with a commercially available active reference compound.
In the present example, both permethrin and fipronil were employed as reference compounds. The insect species tested was the Brown Dog Tick (Rhipicephalus sanguineus). Mixed sex adult ticks were used for tests. The strain used was cultured from a field strain and supplied as unfed adult ticks (mixed sex). Ticks were maintained in controlled conditions (temp. 18°±2° C., humidity 75±5% RH).
Test compounds (formulations or active ingredients) were stored in a refrigerator (5±1° C.) unless otherwise specified. The temperature was maintained at 25±1° C. and the humidity was ambient. The screening dose chosen was higher than that known kill 90% of insects (LD90) using the reference compound. In the case of topical application of active compounds on adult ticks, the reference compound was fipronil and the dose chosen was 10 μg of active per tick (=10 μg of fipronil/1 μl of acetone). Ticks were each treated on the abdomen with 1 μL of a single dose level of test sample in acetone; ten ticks were treated with solvent only (acetone) in each test. Tests were replicated 4 times (total of 40 ticks treated). Ticks were held in recovery containers maintained under appropriate rearing conditions for 24 hours. Mortality resulting from the treatments was recorded at 24 hours. Pooled 24 hour mortality data were converted to percentages.
as §1

[3] = adult cat fleas, single dose screen on treated glass surface, mortality at 24 h

SMILES | Ctenocephalides felis Mortality (%) 24 h ([1]; in vivo) [%] | Haemonchus contortus LD99 (Haemonchus contortus) [µg/mL] | Rhipicephalus sanguineus Mortality (%) 24 h [2] [%] | mortality at 1.26 µg/cm2, 1.26 µg/cm2 [1] [%] | Ctenocephalides felis Mortality (%), measured at 48 hours ([1]; in vivo) [%] | Ctenocephalides felis Mortality (%) 24 h [1, 3] [%]
O=S(=O)(Nc1cccc(Cl)c1Oc1ccc(Cl)cc1Cl)C(F)(F)F [Compound 11] | 20 | 2.5 | – | – | – | –
Cc1cccc(Oc2cc(Cl)ccc2NS(=O)(=O)C(F)(F)F)c1C [Compound 27] | 59 | 14 | – | – | – | –
COCN(c1ccc(Cl)cc1Oc1ccc(Cl)cc1Cl)S(=O)(=O)C(F)(F)F [Compound 84] | 100 | – | 0 | – | – | –
CN(c1ccc(Cl)cc1Oc1ccc(Cl)cc1Cl)S(=O)(=O)C(F)(F)F [Compound 70, N-[4-Chloro-2-(2,4-dichlorophenoxy)phenyl]-N-methyl-1,1,1-trifluoromethanesulfonamide] | – | – | 5 | 11 | 91 | –
C#CCN(c1ccc(Cl)cc1Oc1ccccc1F)S(=O)(=O)C(F)(F)F [Compound 85] | 97 | – | 5 | – | – | –
O=S(=O)(Nc1ccc(Cl)cc1Oc1ccc(Cl)c(Cl)c1)C(F)(F)F [Compound 7] | – | 1.63 | – | – | – | 22
CC(C)=CCN(c1ccc(Cl)cc1Oc1ccc(Cl)cc1Cl)S(=O)(=O)C(F)(F)F [Compound 75, N-(3-methyl-2-butenyl)-N-[4-chloro-2-(2,4-dichlorophenoxy)phenyl]-1,1,1-trifluoromethanesulfonamide] | – | – | 3 | 97 | – | –
O=S(=O)(Nc1ccc(Cl)cc1Oc1ccccc1Cl)C(F)(F)F [Compound 6] | 74 | 15.0 | – | – | – | –
O=S(=O)(Nc1ccc(Cl)cc1Oc1cccc2c1CCCC2)C(F)(F)F [Compound 28] | – | 12 | – | – | – | 10
CC(C)(C)C(=O)OCN(c1ccc(Cl)cc1Oc1ccc(Cl)cc1Cl)S(=O)(=O)C(F)(F)F [Compound 72, N-[4-Chloro-2-(2,4-dichlorophenoxy)phenyl]-N-(trimethylacetyl)oxymethyl-1,1,1-trifluoromethanesulfonamide] | – | – | 0 | 14 | 100 | –
COCN(c1cccc(Oc2ccccc2)c1)S(=O)(=O)C(F)(F)F [m4] | 90 | – | 8 | – | – | –
CC(C)=CCN(c1ccc(Cl)cc1Oc1ccccc1F)S(=O)(=O)C(F)(F)F [Compound 82] | 90 | – | 0 | – | – | –
CCOCN(c1ccc(Cl)cc1Oc1ccc(Cl)cc1Cl)S(=O)(=O)C(F)(F)F [Compound 71, N-[4-Chloro-2-(2,4-dichlorophenoxy)phenyl]-N-ethoxymethyl 1,1,1-trifluoromethanesulfonamide] | 0 | – | 5 | – | 100 | –
O=S(=O)(Nc1cc(Cl)c(Cl)cc1Oc1ccc(Cl)cc1Cl)C(F)(F)F [Compound 13] | 48 | 1.8 | – | – | – | –
C#CCN(c1ccc(Cl)cc1Oc1ccc(Cl)cc1Cl)S(=O)(=O)C(F)(F)F [Compound 83, N-[4-chloro-2-(2,4-dichlorophenoxy)phenyl]-N-(2-propynyl)-1,1,1-trifluoromethanesulfonamide] | – | – | 8 | 100 | – | –
O=S(=O)(Nc1cc(C(F)(F)F)c(Cl)cc1Oc1ccc(Cl)cc1Cl)C(F)(F)F [Compound 22] | 4 | 0.63 | – | – | – | –
O=S(=O)(Nc1cccc(Oc2ccccc2)c1)C(F)(F)F [m1] | 93 | – | 38 | – | – | –
CCCC(=O)OCN(c1ccc(Cl)cc1Oc1ccc(Cl)cc1Cl)S(=O)(=O)C(F)(F)F [Compound 73, N-[4-chloro-2-(2,4-dichlorophenoxy)phenyl]-N-(butyryl)oxymethyl-1,1,1-trifluoromethanesulfonamide] | – | – | 8 | 31 | 100 | –
O=S(=O)(Nc1cc(Cl)c(Cl)cc1Oc1ccc(F)cc1Cl)C(F)(F)F [Compound 19] | 42 | 5.0 | – | – | – | –
O=S(=O)(Nc1cc(C(F)(F)F)ccc1Oc1ccc(Cl)cc1)C(F)(F)F [Compound 29] | 57 | 7.0 | – | – | – | –
CC(C)(C)c1ccc(Oc2cc(Cl)c(Cl)cc2NS(=O)(=O)C(F)(F)F)cc1 [Compound 18] | 19 | 2.8 | – | – | – | –
O=S(=O)(c1ccc(Cl)cc1)c1cc(Cl)ccc1NS(=O)(=O)C(F)(F)F [Compound 24, N-[4-chloro-2-(4-(chlorophenyl)sulfonyl)phenyl]-1,1,1-trifluoromethanesulfonamide] | 19 | 12.0 | – | – | – | –
O=S(=O)(Nc1cc(C(F)(F)F)ccc1Oc1ccc(Cl)cc1Cl)C(F)(F)F [Compound 10] | 38 | 1.5 | – | – | – | –
CC(C)(C)c1ccc(Oc2cc(Cl)ccc2NS(=O)(=O)C(F)(F)F)cc1 [Compound 3] | 58 | 7.0 | – | – | – | –
O=S(=O)(Nc1ccc(Cl)c(Cl)c1Oc1ccccc1F)C(F)(F)F [Compound 17] | 19 | 7.5 | – | – | – | –
